Laboratory results published in patent US12187667B2, “Preparation systems and preparation methods for high-quality xylitol crystals” (ZHEJIANG HUAKANG PHARMACEUTICAL CO., LTD., priority 2022, dated 2025).

Columns and labels:
[1] = cited from earlier work
[2] = Acidity (pH) of xylitol crystal by the Chinese Pharmacopoeia method, 10 g crystal to 20 ml water; format: physicochemical; details: 10 g crystal to 20 ml pure water; for pH of xylitol after one month storage: crystal stored at room temperature for one month; for pH of xylitol after one week storage: crystal stored at room temperature for one week; for pH of xylitol: freshly prepared crystal
Procedure: The acidity of prepared xylitol crystal B was measured according to the method in the Chinese Pharmacopoeia. Xylitol solution was prepared with pure water in a proportion of 10 g crystal to 20 ml water. The pH of the xylitol solution in this Example was measured to be 6.06. After the obtained xylitol crystal B were stored at room temperature for one week, the pH of the xylitol solution was measured to be 6.03 using the same method. After the xylitol crystal was stored at room temperature for one month, the pH of the xylitol solution was measured to be 6.01 using the same method. The acidity of prepared xylitol crystal B was measured according to the method in the Chinese Pharmacopoeia. Xylitol solution was prepared with pure water in a proportion of 10 g crystal to 20 ml water. The pH of the xylitol solution in this Example was measured to be 6.12. After the obtained xylitol crystal B was stored at room temperature for one week, the pH of the xylitol solution was measured to be 6.08 using the same method. After the xylitol crystal was stored at room temperature for one month, the pH of the xylitol solution was measured to be 6.05 using the same method. The acidity of prepared xylitol crystal B was measured according to the method in the Chinese Pharmacopoeia. Xylitol solution was prepared with pure water in a proportion of 10 g crystal to 20 ml water. The pH of the xylitol solution in this Example was measured to be 6.09. After the obtained xylitol crystal B was stored at room temperature for one week, the pH of the xylitol solution was measured to be 6.07 using the same method. After the xylitol crystals were stored at room temperature for one month, the pH of the xylitol solution was measured to be 6.05 using the same method. The acidity of prepared xylitol crystal was measured according to the method in the Chinese Pharmacopoeia. Xylitol solution was prepared with pure water in a proportion of 10 g crystal to 20 ml water. The pH of the xylitol solution in this comparative example was measured to be 5.02. After the obtained xylitol crystals was stored at room temperature for one week, the pH of the xylitol solution was measured to be 4.85 using the same method. After the xylitol crystal was stored at room temperature for one month, the pH of the xylitol solution was measured to be 4.64 using the same method. The acidity of prepared xylitol crystal was measured according to the method in the Chinese Pharmacopoeia. Xylitol solution was prepared with pure water in a proportion of 10 g crystal to 20 ml water. The pH of the xylitol solution in this Contrast was measured to be 5.04. After the obtained xylitol crystal was stored at room temperature for one week, the pH of the xylitol solution was measured to be 4.81 using the same method. After the xylitol crystal was stored at room temperature for one month, the pH of the xylitol solution was measured to be 4.68 using the same method. The acidity of prepared xylitol crystal was measured according to the method in the Chinese Pharmacopoeia. Xylitol solution was prepared with pure water in a proportion of 10 g crystal to 20 ml water. The pH of the xylitol solution in this comparative example was measured to be 5.03. After the obtained xylitol crystal was stored at room temperature for one week, the pH of the xylitol solution was measured to be 4.90 using the same method. After the xylitol crystal was stored at room temperature for one month, the pH of the xylitol solution was measured to be 4.73 using the same method.

[3] = pH of xylitol crystal prepared from xylitol solutions with different compositions; format: physicochemical; details: crystal prepared from xylitol solution of the stated composition
Text: In the production process of xylitol, there are two main factors can affect the pH of the product, one of which is ion exchange process. When xylitol solution passes through cation and anion exchange columns, H^+ and OH^− in resins are exchanged out, respectively. Due to the difference of exchange capacity between cation exchange column and anion exchange column, xylitol crystal products may have different pH. The other factor affecting the pH of xylitol product is the difference in composition of xylitol solution, which leads to a great difference in the pH of xylitol crystal.

[4] = pH of crude xylitol crystal after first crystallization; format: physicochemical; details: after first centrifuge and fluidization drying, before recrystallization
Procedure: Step 12, constant vacuum degree of the first crystallization kettle 7 was maintained at −0.095 MPa to further evaporate the xylitol concentrate solution. When temperature of the first crystallization kettle 7 dropped to 65° C., 0.001% xylitol crystal seeds (80-100 mesh) were added, and the system was maintained at constant temperature of 65° C. for evaporation and crystallization for 8 h. Finally, a crude xylitol crystal with purity of 99.5% and pH of 4.87 was obtained by centrifugal separation treatment of the first centrifuge 8 and fluidization drying treatment of the fluidization drying bed 9. At the same time, the primary centrifugal mother liquor C with purity of 90% obtained by the centrifugal separation treatment of the first centrifuge 8 was backset to the blending tank 1.
Step 22, constant vacuum degree of the first crystallization kettle 7 was maintained at −0.095 MPa to further evaporate the xylitol concentrate solution. When temperature of the first crystallization kettle 7 dropped to 64° C., 0.001% xylitol crystal seeds (100-120 mesh) were added, and the system was maintained at constant temperature of 64° C. for evaporation and crystallization for 12 h. Finally, crude xylitol crystal with purity of 99.6% and pH of 4.9 was obtained by centrifugal separation treatment of the first centrifuge 8 and fluidization drying treatment of the fluidization drying bed 9. At the same time, the primary centrifugal mother liquor C with purity of 89.5% obtained by the centrifugal separation treatment of the first centrifuge 8 was backset to the blending tank 1.
Step 32, constant vacuum degree of the first crystallization kettle 7 was maintained at −0.095 MPa to further evaporate the xylitol concentrate solution. When temperature of the first crystallization kettle 7 dropped to 66° C., 0.002% xylitol crystal seeds (60-80 mesh) were added, and the system was maintained at constant temperature of 66° C. for evaporation and crystallization for 10 h. […]

[5] = listed as Comparative Example 3
[6] = listed as Comparative Example 1
[7] = listed as Comparative Example 2

Compound	pH of xylitol after one month storage [2]	pH of xylitol after one week storage [2]	pH of xylitol [2]	other results
O=C[C@@H](O)[C@H](O)[C@H](O)CO [Arabinose]	–	–	–	Acidity coefficient (pKa) [1]: 12.46 ± 0.2
OC[C@@H](O)[C@H](O)[C@@H](O)CO [compound 3, xylitol]	4.73	4.90	5.03	pH of xylitol after one month storage [2, 5]: 4.73; pH of xylitol after one week storage [2, 5]: 4.90; pH of xylitol [2, 5]: 5.03
OC[C@@H](O)[C@H](O)[C@@H](O)CO [compound 1, xylitol]	4.64	4.85	5.02	pH of xylitol after one month storage [2, 6]: 4.64; pH of xylitol after one week storage [2, 6]: 4.85; pH of xylitol [2, 6]: 5.02
O=C[C@H](O)[C@@H](O)[C@@H](O)[C@H](O)CO [galactose]	–	–	–	Acidity coefficient (pKa) [1]: 12.35
OC[C@@H](O)[C@H](O)[C@@H](O)CO [100% xylitol, xylitol]	–	–	–	pH of xylitol crystal [3]: 6.02
O=C[C@H](O)[C@@H](O)[C@H](O)CO [Xylose]	–	–	–	Acidity coefficient (pKa) [1]: 12.14
OC[C@@H](O)[C@H](O)[C@@H](O)CO [Example 1 crude xylitol crystal, xylitol]	–	–	–	pH of crude xylitol crystal [4]: 4.87
OC[C@@H](O)[C@H](O)[C@@H](O)CO [Example 1, xylitol]	6.01	6.03	6.06	–
OC[C@@H](O)[C@H](O)[C@@H](O)CO [Xylitol]	–	–	–	Acidity coefficient (pKa) [1]: 13.24 ± 0.2
OC[C@@H](O)[C@H](O)[C@@H](O)CO [Example 3 crude xylitol crystal, xylitol]	–	–	–	pH of crude xylitol crystal [4]: 4.99
OC[C@@H](O)[C@H](O)[C@@H](O)CO [Example 2 crude xylitol crystal, xylitol]	–	–	–	pH of crude xylitol crystal [4]: 4.9
OC[C@@H](O)[C@H](O)[C@@H](O)CO [Example 2, xylitol]	6.05	6.08	6.12	–
OC[C@@H](O)[C@H](O)[C@@H](O)CO [compound 2, xylitol]	4.68	4.81	5.04	pH of xylitol after one month storage [2, 7]: 4.68; pH of xylitol after one week storage [2, 7]: 4.81; pH of xylitol [2, 7]: 5.04
OC[C@@H](O)[C@H](O)[C@@H](O)CO [Example 3, xylitol]	6.05	6.07	6.09	–
